Assay results: PubChem BioAssay AID2060888 (Molecular Pharmacology Branch, DTP, NCI, 2025)

Tested on: 695427-040-R-J1-PDC complex spheroid viability
Assay: Anticancer human tumor 695427-040-R-J1-PDC patient-derived colon adenocarcinoma cell line growth inhibition [RAS]
Details: for IC50: curve of first compound; for viability, T/C: stronger effect = lower value
Method in brief: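 Tumour cells grown as complex spheroids with HUVEC endothelial cells and mesenchymal stem cells, treated with RAS pathway inhibitor combinations. Each agent spans half-log steps from near clinical Cmax, or 10 microM where Cmax is unknown.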
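Also: viability read after seven days of drug exposure.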
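For viability, T/C in this document: 100% = DMSO vehicle control viability.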

Compound: Cc1nc(N2CCC3(CC2)COC(C)C3N)c(CO)nc1Sc1ccnc(N)c1Cl (configuration not stated) + CCn1c(-c2cccnc2C(C)OC)c2c3cc(ccc31)N1CCOC(CC(NC(=O)C(C(C)C)N(C)C(=O)C3(F)CCN(C(=O)C#CC(C)(C)N(C)C)CC3)C(=O)N3CCCC(N3)C(=O)OCC(C)(C)C2)C1
- IC50 (second compound 0.000949 µM): > 10 µM
- IC50 (second compound 0.003 µM): > 10 µM
- IC50 (second compound 0.00949 µM): > 10 µM
- IC50 (second compound 0.03 µM): > 10 µM
- IC50 (second compound 0.0949 µM): > 10 µM
- IC50 (second compound 0.3 µM): 2.82 µM
- viability, T/C (second compound 0.000949 µM, first compound 0.0316 µM): 84.9%
- viability, T/C (second compound 0.000949 µM, first compound 0.1 µM): 93.2%
- viability, T/C (second compound 0.000949 µM, first compound 0.316 µM): 75.4%
- viability, T/C (second compound 0.000949 µM, first compound 1 µM): 64.3%
- viability, T/C (second compound 0.000949 µM, first compound 3.16 µM): 60.4%
- viability, T/C (second compound 0.000949 µM, first compound 10 µM): 61.3%
- viability, T/C (second compound 0.003 µM, first compound 0.0316 µM): 94.2%
- viability, T/C (second compound 0.003 µM, first compound 0.1 µM): 70.6%
- viability, T/C (second compound 0.003 µM, first compound 0.316 µM): 71.4%
- viability, T/C (second compound 0.003 µM, first compound 1 µM): 63.2%
- viability, T/C (second compound 0.003 µM, first compound 3.16 µM): 67.1%
- viability, T/C (second compound 0.003 µM, first compound 10 µM): 47.3%
- viability, T/C (second compound 0.00949 µM, first compound 0.0316 µM): 104%
- viability, T/C (second compound 0.00949 µM, first compound 0.1 µM): 82%
- viability, T/C (second compound 0.00949 µM, first compound 0.316 µM): 83.9%
- viability, T/C (second compound 0.00949 µM, first compound 1 µM): 57.8%
- viability, T/C (second compound 0.00949 µM, first compound 3.16 µM): 67.1%
- viability, T/C (second compound 0.00949 µM, first compound 10 µM): 49.3%
- viability, T/C (second compound 0.03 µM, first compound 0.0316 µM): 75%
- viability, T/C (second compound 0.03 µM, first compound 0.1 µM): 85.8%
- viability, T/C (second compound 0.03 µM, first compound 0.316 µM): 63%
- viability, T/C (second compound 0.03 µM, first compound 1 µM): 63.8%
- viability, T/C (second compound 0.03 µM, first compound 3.16 µM): 65.5%
- viability, T/C (second compound 0.03 µM, first compound 10 µM): 53.4%
- viability, T/C (second compound 0.0949 µM, first compound 0.0316 µM): 78.2%
- viability, T/C (second compound 0.0949 µM, first compound 0.1 µM): 83.7%
- viability, T/C (second compound 0.0949 µM, first compound 0.316 µM): 74%
- viability, T/C (second compound 0.0949 µM, first compound 1 µM): 68.1%
- viability, T/C (second compound 0.0949 µM, first compound 3.16 µM): 63%
- viability, T/C (second compound 0.0949 µM, first compound 10 µM): 52.7%
- viability, T/C (second compound 0.3 µM, first compound 0.0316 µM): 85.2%
- viability, T/C (second compound 0.3 µM, first compound 0.1 µM): 70.9%
- viability, T/C (second compound 0.3 µM, first compound 0.316 µM): 70.5%
- viability, T/C (second compound 0.3 µM, first compound 1 µM): 51.4%
- viability, T/C (second compound 0.3 µM, first compound 3.16 µM): 51.4%
- viability, T/C (second compound 0.3 µM, first compound 10 µM): 43.5%
